Test results taken from patent US6162417A, “Pyrrolo isoquinolines” (Emory University, priority 1998, dated 2000).
Entries after “also recorded” stand apart in the source; their conditions may differ. Where two headings read alike, the source gives them in different places.

Experiments:
dopamine transporter = target: T1, dopamine transporter (Rattus norvegicus, UniProt P23977); experiment: Transporter binding site inhibition in rat brain striatal and cortical membranes - dopamine transporter ([3H]WIN 35428)
T1 construct: in rat cortical and striatal homogenates; from tissue; host or cells: rat brain, striatal and cortical homogenates/membranes
T1 sequence (P23977 whole entry): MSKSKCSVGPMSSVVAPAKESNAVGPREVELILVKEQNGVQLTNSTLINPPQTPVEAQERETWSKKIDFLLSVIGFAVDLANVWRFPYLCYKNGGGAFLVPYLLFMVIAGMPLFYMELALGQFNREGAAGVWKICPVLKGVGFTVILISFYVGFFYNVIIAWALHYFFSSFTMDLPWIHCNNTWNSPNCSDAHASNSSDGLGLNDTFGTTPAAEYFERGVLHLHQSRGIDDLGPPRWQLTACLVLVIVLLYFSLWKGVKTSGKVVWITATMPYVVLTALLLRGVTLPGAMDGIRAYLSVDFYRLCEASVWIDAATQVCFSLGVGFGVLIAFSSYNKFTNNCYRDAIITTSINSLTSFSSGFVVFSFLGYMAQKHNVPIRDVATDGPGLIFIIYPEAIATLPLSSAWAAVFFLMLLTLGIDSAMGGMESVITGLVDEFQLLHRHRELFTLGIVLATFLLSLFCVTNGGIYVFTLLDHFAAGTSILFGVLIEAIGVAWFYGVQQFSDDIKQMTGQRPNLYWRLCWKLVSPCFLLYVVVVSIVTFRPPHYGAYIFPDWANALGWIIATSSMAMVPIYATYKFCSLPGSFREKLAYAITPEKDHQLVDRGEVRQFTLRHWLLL
Text: (§1) Transporter Binding Site Inhibition Data for Various
(§2) Ligands in Rat Brain Striatial and Cortical Membranes

[1] = target: T2, norepinephrine transporter (Rattus norvegicus, UniProt Q63380); experiment: Transporter binding site inhibition in rat brain striatal and cortical membranes - norepinephrine transporter ([3H]desmethylimipramine); conditions: vs. [3H]desmethylimipramine, read-out: NE Ki
T2 construct: in rat cortical and striatal homogenates; from tissue; host or cells: rat brain, striatal and cortical homogenates/membranes
T2 sequence (Q63380 1-617): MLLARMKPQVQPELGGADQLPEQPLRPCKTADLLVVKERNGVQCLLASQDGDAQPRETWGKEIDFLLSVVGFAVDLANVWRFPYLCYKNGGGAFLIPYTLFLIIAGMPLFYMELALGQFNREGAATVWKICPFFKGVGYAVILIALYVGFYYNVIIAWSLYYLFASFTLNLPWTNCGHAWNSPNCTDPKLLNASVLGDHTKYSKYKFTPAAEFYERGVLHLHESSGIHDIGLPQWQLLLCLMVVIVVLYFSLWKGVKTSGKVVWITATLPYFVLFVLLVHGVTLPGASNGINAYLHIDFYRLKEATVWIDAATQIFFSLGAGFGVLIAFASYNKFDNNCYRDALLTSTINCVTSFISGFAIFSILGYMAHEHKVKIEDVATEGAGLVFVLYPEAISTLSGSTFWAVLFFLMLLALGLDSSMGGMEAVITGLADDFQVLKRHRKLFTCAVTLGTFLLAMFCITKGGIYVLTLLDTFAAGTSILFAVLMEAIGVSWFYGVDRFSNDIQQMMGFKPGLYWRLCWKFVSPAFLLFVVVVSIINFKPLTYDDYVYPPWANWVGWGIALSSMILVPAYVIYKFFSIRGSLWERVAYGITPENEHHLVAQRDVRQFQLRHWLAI
Text: as §1, §2

serotonin transporter [2] = target: T3, serotonin transporter (Rattus norvegicus, UniProt P31652); experiment: Transporter binding site inhibition in rat brain striatal and cortical membranes - serotonin transporter ([3H]citalopram); conditions: for in vitro affinity/selectivity for the serotonin transporter: rat membranes, Table 2
T3 construct: in rat cortical and striatal homogenates; from tissue; host or cells: rat brain, striatal and cortical homogenates/membranes
T3 sequence (P31652 whole entry): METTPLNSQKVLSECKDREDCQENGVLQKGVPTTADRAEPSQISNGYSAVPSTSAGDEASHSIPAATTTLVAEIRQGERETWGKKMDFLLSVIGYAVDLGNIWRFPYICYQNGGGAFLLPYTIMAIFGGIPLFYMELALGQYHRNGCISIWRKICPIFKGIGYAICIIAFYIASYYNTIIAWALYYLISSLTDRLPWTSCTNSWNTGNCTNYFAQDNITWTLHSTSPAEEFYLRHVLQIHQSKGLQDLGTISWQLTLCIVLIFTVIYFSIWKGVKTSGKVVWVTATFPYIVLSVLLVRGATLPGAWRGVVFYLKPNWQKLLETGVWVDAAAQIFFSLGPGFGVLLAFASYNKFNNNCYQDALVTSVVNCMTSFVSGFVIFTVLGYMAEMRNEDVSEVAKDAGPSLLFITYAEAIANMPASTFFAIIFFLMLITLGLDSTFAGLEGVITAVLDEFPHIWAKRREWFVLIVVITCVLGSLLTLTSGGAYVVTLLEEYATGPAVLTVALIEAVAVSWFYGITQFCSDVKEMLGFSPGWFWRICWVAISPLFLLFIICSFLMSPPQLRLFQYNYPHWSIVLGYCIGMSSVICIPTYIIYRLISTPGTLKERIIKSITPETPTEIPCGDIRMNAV
Text: as §1, §2

[3] = target: T4, human dopamine transporter (Homo sapiens, UniProt Q01959); experiment: Binding site inhibition in MDCK cell membranes transfected with human dopamine transporter ([3H]WIN 35428)
T4 construct: expressed in transfected cells; host or cells: MDCK (dog kidney) cells, stably transfected
T4 sequence (Q01959 whole entry): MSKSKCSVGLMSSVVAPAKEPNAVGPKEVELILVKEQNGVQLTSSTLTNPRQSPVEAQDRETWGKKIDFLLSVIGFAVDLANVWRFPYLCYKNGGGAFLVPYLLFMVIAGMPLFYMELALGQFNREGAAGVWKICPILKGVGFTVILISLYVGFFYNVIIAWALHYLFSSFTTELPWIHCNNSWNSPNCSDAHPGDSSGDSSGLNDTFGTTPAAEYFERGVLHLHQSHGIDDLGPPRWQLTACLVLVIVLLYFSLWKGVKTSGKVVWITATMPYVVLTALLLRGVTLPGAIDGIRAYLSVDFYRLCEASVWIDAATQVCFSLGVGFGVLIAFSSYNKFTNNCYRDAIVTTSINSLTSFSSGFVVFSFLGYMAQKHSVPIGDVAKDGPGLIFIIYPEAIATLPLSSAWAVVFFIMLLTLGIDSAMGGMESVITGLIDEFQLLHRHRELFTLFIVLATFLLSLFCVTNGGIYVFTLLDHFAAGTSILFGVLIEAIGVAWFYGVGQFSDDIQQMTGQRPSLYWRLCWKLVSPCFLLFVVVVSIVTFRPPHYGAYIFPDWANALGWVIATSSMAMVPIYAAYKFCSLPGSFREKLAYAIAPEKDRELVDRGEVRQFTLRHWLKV

[4] = target: T5, human norepinephrine transporter (Homo sapiens, UniProt P23975); experiment: Binding site inhibition in HEK-293 cell membranes transfected with human norepinephrine transporter ([3H]Nisoxetine); conditions: HEK-293 cells, human NE transporter; vs. [3H]Nisoxetine
T5 construct: expressed in transfected cells; host or cells: HEK-293, stably transfected
T5 sequence (P23975 whole entry): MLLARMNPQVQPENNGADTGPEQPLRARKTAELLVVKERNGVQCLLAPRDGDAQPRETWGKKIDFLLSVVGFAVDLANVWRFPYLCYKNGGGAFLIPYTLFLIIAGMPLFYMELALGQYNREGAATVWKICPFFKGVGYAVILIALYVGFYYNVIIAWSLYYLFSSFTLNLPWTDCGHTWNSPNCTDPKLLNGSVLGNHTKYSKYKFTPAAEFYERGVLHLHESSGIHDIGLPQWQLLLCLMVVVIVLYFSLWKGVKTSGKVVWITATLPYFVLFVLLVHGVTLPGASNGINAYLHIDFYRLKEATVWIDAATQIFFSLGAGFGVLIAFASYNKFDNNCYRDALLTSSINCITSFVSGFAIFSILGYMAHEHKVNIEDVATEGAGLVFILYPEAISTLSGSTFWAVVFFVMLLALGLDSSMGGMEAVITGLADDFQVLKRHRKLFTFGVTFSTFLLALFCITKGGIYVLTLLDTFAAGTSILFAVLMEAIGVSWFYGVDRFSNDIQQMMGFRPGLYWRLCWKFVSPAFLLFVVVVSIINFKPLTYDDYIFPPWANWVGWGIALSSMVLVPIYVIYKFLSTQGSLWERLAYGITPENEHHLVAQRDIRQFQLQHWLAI
Text: ^2 [^3 H]Nisoxetine as reference/control for norepinephrine

[5] = target: T6, human serotonin transporter (Homo sapiens, UniProt P31645); experiment: Binding site inhibition in HEK-293 cell membranes transfected with human serotonin transporter ([3H]Citalopram); conditions: for in vitro affinity/selectivity for transporter sites: human transporters, Table 3
T6 construct: expressed in transfected cells; host or cells: HEK-293, stably transfected
T6 sequence (P31645 whole entry): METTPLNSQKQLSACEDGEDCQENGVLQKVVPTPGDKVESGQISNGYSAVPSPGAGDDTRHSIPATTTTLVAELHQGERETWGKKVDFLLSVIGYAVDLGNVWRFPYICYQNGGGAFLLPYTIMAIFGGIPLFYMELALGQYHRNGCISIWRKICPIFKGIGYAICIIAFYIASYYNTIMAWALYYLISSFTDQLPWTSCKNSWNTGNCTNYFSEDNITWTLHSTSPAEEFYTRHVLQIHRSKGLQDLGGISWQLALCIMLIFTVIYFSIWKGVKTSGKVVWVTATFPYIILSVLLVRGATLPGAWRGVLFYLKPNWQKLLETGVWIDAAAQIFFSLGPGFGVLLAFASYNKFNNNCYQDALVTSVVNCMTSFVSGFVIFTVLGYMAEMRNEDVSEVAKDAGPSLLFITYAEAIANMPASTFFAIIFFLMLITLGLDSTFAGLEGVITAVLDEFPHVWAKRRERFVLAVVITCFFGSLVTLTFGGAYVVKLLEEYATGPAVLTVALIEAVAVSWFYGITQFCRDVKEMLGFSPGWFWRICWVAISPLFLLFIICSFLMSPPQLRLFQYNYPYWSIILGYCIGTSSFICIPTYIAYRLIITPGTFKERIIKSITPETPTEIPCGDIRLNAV

serotonin transporter [6] = conditions: carbon-11 label; cited from earlier work
[7] = rat striatal/cortical membranes, vs. [3H]WIN 35428, read-out: DA Ki
[8] = rat striatal/cortical membranes, vs. [3H]citalopram, read-out: 5-HT Ki
[9] = MDCK cells, human DA transporter, vs. [3H]WIN 35428, read-out: DA Ki
[10] = HEK-293 cells, human serotonin transporter, vs. [3H]Citalopram, read-out: 5-HT Ki

| Structure (SMILES) | in vitro affinity/selectivity for the serotonin transporter (serotonin transporter [2]) | Ki [3, 9] [nM] | Ki [4] [nM] | Ki [5] [nM] | in vitro affinity/selectivity for transporter sites [5] | Ki [5, 10] [nM] | other results |
| --- | --- | --- | --- | --- | --- | --- | --- |
| Brc1ccc([C@@H]2CN3CCC[C@@H]3c3ccccc32)cc1 (relative stereo) [compound 5, trans-1,2,3,5,6,10b-hexahydro-6-[4-bromophenyl]pyrrolo-[2,1-a]isoquinoline] | high in vitro affinity for the serotonin transporter |  |  |  |  |  | Ki (dopamine transporter; [7]): 9.6 nM; Ki [1]: 2390 nM; Ki (serotonin transporter [2]; [8]): 5.1 nM |
| Ic1ccc([C@@H]2CN3CCC[C@@H]3c3ccccc32)cc1 (relative stereo) [compound 6, trans-1,2,3,5,6,10b-hexahydro-6-[4-iodophenyl]pyrrolo-[2,1-a]isoquinoline] | high in vitro affinity and good selectivity for the serotonin transporter | 0.9 | 10 | 0.9 | high affinity for both serotonin and dopamine transporter sites, and is selective for these two sites versus norepinephrine transporter site |  | Ki (dopamine transporter; [7]): 14 nM; Ki [1]: 961 nM; Ki (serotonin transporter [2]; [8]): 2.3 nM |
| FC/C=C\c1ccc([C@@H]2CN3CCC[C@@H]3c3ccccc32)cc1 (relative stereo) [compound 19, trans-1,2,3,5,6,10b-hexahydro-6-[4'Z-(3-fluoro-1-propenyl)phenyl]pyrrolo-[2,1-a]isoquinoline] | high affinity for and the most selectivity for the serotonin transporter | 220 |  | 1 | high selectivity and affinity for serotonin transporter sites, compared with dopamine transporter site; also recorded: more selective than McN-5652Z for the serotonin transporter site, compared to the dopamine transporter site; also recorded: very high and equal affinity for the serotonin transporter site |  | Ki (dopamine transporter): 221 nM; Ki (serotonin transporter [2]): 2.8 nM |
| Fc1cccc2c1[C@H]1CCCN1C[C@H]2c1ccc(Br)cc1 (relative stereo) [racemic Br, X = F at position 10] |  | 0.15 | 5 |  |  | 1.6 | affinity and selectivity for the dopamine transporter ([3]; human transporters, Table 3): high affinity and selectivity for the dopamine transporter |
| Brc1ccc([C@@H]2CN3CCC[C@@H]3c3ccccc32)cc1 (relative stereo) [racemic Br] |  | 0.07 | 2.3 |  |  | 0.68 |  |
| FCC#Cc1ccc([C@@H]2CN3CCC[C@@H]3c3ccccc32)cc1 (relative stereo) [racemic C=CCH2 F] |  | 11.3 | 24 |  |  | 8.6 |  |
| [11CH3]Sc1ccc([C@H]2CN3CCC[C@H]3c3ccccc32)cc1 [Carbon-11 McN-5652Z] |  |  |  |  |  |  | accumulation in brain regions (serotonin transporter [6]): greatest accumulation in brain regions rich in serotoninergic neurons |
| COC(=O)[C@H]1[C@@H](c2ccc(I)cc2)C[C@@H]2CC[C@H]1N2C [RTI-55 (CIT), reference compound] |  |  | 38.9 |  | high affinity for both serotonin and dopamine transporter sites, and is selective for these two sites versus norepinephrine transporter site | 0.67 | Ki [3]: 0.47 nM |
| Ic1ccc([C@@H]2CN3CCC[C@@H]3c3ccccc32)cc1 [compound 6, trans (95% ee) (6S, 10bR), (+)-(6S, 10bR)-1,2,3,5,6,10b-hexahydro-6-(4'-iodophenyl)pyrrolo[2,1-a]isoquinoline] |  | 0.9 | 10 | 0.9 |  |  |  |
